Reference: US5767237A, “Peptide derivatives” (Teikoku Hormone Mfg. Co., Ltd., priority 1993, dated 1998)

Tested on: mouse leukemia P388 cells
Test: Assay of antitumor activity: increase in life span of mice implanted with P388 leukemia
Type: in vivo
Details: CDF1 mice, P388 cells 10^6 cells/mouse i.p.; compound i.p. on first and fifth day after implantation; observed for 60 days; ILS from median survival days
Protocol: (1) Assay of antitumor activity
0.1 ml (10^6 cells/mouse) portions of mouse leukemia P388 cells were implanted intraperitoneally into 7-week-old CDF1 mice. […] From the results were calculated increases in life span (ILS, %) according to the following equation. In the following equation, T means median survival days of the chemical administration group, and C means median survival days of the control group. [formula]
Antitumor activity is shown as the relative ratio in the case where the ILS of dolastatin 10 is supposed to be 100.

**Q.** For dolastatin 10, which “Antitumor activity (relative ratio of ILS, ILS of dolastatin 10 supposed to be 100)” value is on record?
**A.** 100
